In publication PMC6238539, “Discovery of a cofactor-independent inhibitor of Mycobacterium tuberculosis InhA” (Life Science Alliance, 2018):
Like-named read-outs stand apart in the source and are kept apart here.

Assays:
M. tuberculosis Erdman = assay type: in vivo, Mycobacterium tuberculosis; details: dose escalation study (Table S4), 25 mg/kg, day 22
M. tuberculosis H37Rv [1] = experiment: microbe, parasite or virus in culture; assay type: cell-based, Mycobacterium tuberculosis; details: for IC90: Mycobacterium tuberculosis, H37RV, whole-cell M. tuberculosis
M. tuberculosis InhA [2] = target: T1, M. tuberculosis InhA (Mycobacterium tuberculosis, UniProt P9WGR1); experiment: InhA in vitro inhibition assay; assay type: biochemical
T1 sequence (P9WGR1 whole entry, looked up): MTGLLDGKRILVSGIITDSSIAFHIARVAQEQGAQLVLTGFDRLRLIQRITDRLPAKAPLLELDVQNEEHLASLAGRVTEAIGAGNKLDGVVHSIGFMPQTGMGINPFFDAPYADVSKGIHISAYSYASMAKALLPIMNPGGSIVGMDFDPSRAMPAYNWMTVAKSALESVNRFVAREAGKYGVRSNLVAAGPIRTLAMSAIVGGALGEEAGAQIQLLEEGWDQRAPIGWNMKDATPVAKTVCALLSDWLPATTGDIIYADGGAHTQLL

M. tuberculosis InhA [3] = target: T1, M. tuberculosis InhA; experiment: biochemical; assay type: binding
in vitro [4] = details: human
[5] = tested on: intracellular M. tuberculosis in THP-1 cells; experiment: microbe, parasite or virus in culture; assay type: cell-based; details: Mycobacterium tuberculosis
in vitro [6] = assay type: cell-based; details: human; read-out: HepG2 cytotoxicity IC50
Protocol: HepG2 human liver cells (ATCC HB 8065) were propagated in DMEM containing either 25 mM glucose or 10 mM galactose plus 10% vol/vol FBS, 1 mM sodium pyruvate, 2 mM Corning glutagro, 100 U/ml penicillin, and 100 μg/ml streptomycin. The cells were seeded in 384-well plates at 1,800 cells per well and incubated in a humidified incubator at 37°C, 5% CO2. Compounds were solubilized in DMSO and assayed using a 10-point threefold serial dilution. Compounds were added 24 h post cell seeding to a final assay concentration of 1% DMSO and highest compound concentration of 100 μM. The cells were incubated for 72 h and viability measured using CellTiter-Glo reagent (Promega) and reading RLU. Growth inhibition curves were fitted using the Levenberg–Marquardt algorithm. The IC50 was defined as the compound concentration that produced 50% of the inhibitory response against HepG2 cells.

M. tuberculosis H37Rv [7] = experiment: Kill kinetics under replicating conditions; assay type: cell-based, Mycobacterium tuberculosis

For NNC(=O)c1ccncc1 [INH, isoniazid], the “Mean ± SEM Log10 CFU” value (M. tuberculosis Erdman; lung) was 4.6 ± 0.06 Log10 CFU, the “Mean ± SEM Log10 CFU” value (M. tuberculosis Erdman; spleen) was 2.4 ± 0.15 Log10 CFU and the IC90 (M. tuberculosis H37Rv [1]) was 0.2 µM.

In the case of CCS(=O)(=O)N1N=Cc2cc(Oc3ccc(C(F)(F)F)cc3/C=N/O)ccc2B1O [AN12908], the IC50 (M. tuberculosis InhA [2]) is reported as 2.3 µM, the IC90 (M. tuberculosis H37Rv [1]) is reported as 7 ± 2.6 µM and the “cofactor dependence of binding to InhA” value (M. tuberculosis InhA [3]) is reported as “dependent on NAD^+ for binding”. For the same compound, the Kd (M. tuberculosis InhA [3]; cofactor: NAD^+) was 847 ± 318 nM, the “N (stoichiometry of binding)” value (M. tuberculosis InhA [3]; cofactor: NAD^+) was 0.49 ± 0.022 and the “∆H” value (M. tuberculosis InhA [3]; cofactor: NAD^+) was −25,010 ± 1,496 cal/mol. The “∆S” value (M. tuberculosis InhA [3]; cofactor: NAD^+) was −56 cal/mol/deg.

N#Cc1ccc(Oc2ccc3c(c2)COB3O)c(/C=N/O)c1 [AN3438] gave an IC50 (M. tuberculosis InhA [2]) of 12 µM and an IC90 (M. tuberculosis H37Rv [1]) of 16 ± 1.2 µM.

OB1OCc2ccc(Oc3ccc(C(F)(F)F)cc3)cc21 [AN2918] gave an IC50 (M. tuberculosis InhA [2]) of 44 µM and an IC90 (M. tuberculosis H37Rv [1]) greater than 200 µM.

In the case of CS(=O)(=O)N1N=Cc2ccc(Oc3ccc(C#N)cc3)cc2B1O [AN6534], the IC50 (M. tuberculosis InhA [2]) is reported as 79 µM and the IC90 (M. tuberculosis H37Rv [1]) is reported as 36 ± 1.7 µM.

In the case of CS(=O)(=O)N1N=Cc2ccc(Oc3ccc(C(F)(F)F)cc3/C=N/O)cc2B1O [AN12541], the IC50 (in vitro [4]) is reported as greater than 50 µM, the IC50 (M. tuberculosis InhA [2]) is reported as 0.4 µM and the “increase in potency against purified InhA” value (M. tuberculosis InhA [2]; versus AN6534) is reported as 190 fold. It also gave an IC50 [5] of 46 ± 13 nM, an IC90 [5] of 110 ± 10 nM and an IC50 (in vitro [6]) greater than 100 µM. The IC90 (M. tuberculosis H37Rv [1]) was 0.11 ± 0.21 µM, the “increase in potency against M. tuberculosis” value (M. tuberculosis H37Rv [1]; versus AN6534) was 350 fold and the bactericidal activity (M. tuberculosis H37Rv [7]) was “similarly active”.
